We go through one compound from US5762953A, “Transdermal propentofylline compositions for the treatment of Alzheimers disease” (Theratech, Inc., priority 1996, dated 1998).

Series [1] in a line: In vitro skin flux study of reservoir formulations, heat separated human epidermal membrane, modified Franz diffusion cells. In kind it is in vitro ADME. As to the method:
Two reservoir type formulations (I and II) were prepared for the determination of initial propentofylline skin flux rates.
Approximately 4.0 ml of a base solution was prepared in a 7 ml glass vial. This solution consisted of 50% v/v of ethanol, USP; 15% v/v purified water (18 Mohm-cm); 30% v/v glycerin, USP; 1% v/v of glycerol monooleate (GMO, "Myverol® 18-99); 1% v/v methyl laurate (ML). To one solution was added sufficient propentofylline provide a concentration of about 72 mg/ml of solution (Formulation I) and to the other was added sufficient propentofylline to provide a concentration of about 131 mg/ml of solution (Formulation II). To each solution was added about 3% v/v of hydroxypropyl methylcellulose (Methocel® E10M) as a thickening agent. […]
Dermatomed (≈[…]) full thickness human cadaver skin was obtained from skin banks. […] Information on age, race, sex and anatomical site of the donor skin was recorded when available.
[…] skin flux studies were conducted using a heat separated human epidermal membrane and modified Franz diffusion cells. […] At predetermined time points, the entire contents of the receiver compartment were collected for drug quantitation,and the receiver compartment refilled with fresh receptor medium, taking care to eliminate any air bubbles at the skin/solution interface. […]

The conditions of series [2]: cited from earlier work.
The conditions of series [3]: cited from earlier work. This is another data set of the same source.
For series [4] the following is noted: oral treatment; cited from earlier work.
Another series relates to nucleoside transport. Conditions: cerebral ischemia; cited from earlier work.

SMILES strings stand for the structures.

Regarding `CCCn1cnc2c1c(=O)n(CCCCC(C)=O)c(=O)n2C` [propentofylline, 1-(5'-oxohexyl)-3-methyl-7-propylxanthine], in series [1], the constant migration rate result is reported as “about 2 mg/cm^2 /24 h” and the “sustained daily dosage provided by transdermal delivery” value was found to be 30 mg. Besides, in series [2] (2 hours following a single 300 mg oral dose, concluded from literature PK data), the plasma propentofylline concentration was roughly 10 ng/mL. Moreover, in series [2] (humans), the elimination half-life was 15 to 45 min and the “hepatic first pass metabolism” value was “extensive hepatic first pass metabolism primarily to inactive metabolites”. Also, in series [2] (oral, humans), the “absolute bioavailability after oral administration” value is given as 5-10% and the “effect of food on bioavailability” value is reported as “Drug interactions with food further reduce bioavailability”. Also, the “rate of deterioration / acute improvement of patient's condition” value in series [3] (neuroprotective effect) is given as “although not producing an acute improvement in the patient's condition, does cause a reduction in the rate of deterioration”. In series [3] (placebo controlled trials, mild to moderate dementia), the “clinical parameters in dementia” value was “positively influence clinical parameters in placebo controlled trials”. In series [4], the “most frequent side effects” value is “headaches, dizziness, gastrointestinal pain and nausea”. Further, in the series on nucleoside transport, the “nucleoside transport inhibition, neuroprotective effects” value is reported as “nucleoside transport inhibitor with neuroprotective effects in cerebral ischemia”.
